Assay results published in PMC7351026, “Serum Half-Lives for Short- and Long-Chain Perfluoroalkyl Acids after Ceasing Exposure from Drinking Water Contaminated by Firefighting Foam” (Environmental Health Perspectives, 2020).
Read-outs that look alike come from different tables or passages of the source.

Legend:
[1] = Population average serum elimination rate and half-life (linear mixed model, one compartment, first-order)
Procedure: Serum PFAS concentrations were log-transformed. Time was calculated as the elapsed days between supply of clean bottled water and […] blood sampling. We assumed one compartment, first-order elimination kinetics. In this kinetic model, the body is considered as one homogeneous volume in which mixing is instantaneous and from which PFAS could be absorbed, transferred, and eliminated according to the rate of elimination that is proportional to the concentration of PFAS in the body. Two methods were used to estimate serum elimination rate constant (k) and half-life for each PFAS:
Briefly, in the linear mixed model In Cij=αi+tijβ+Xiβ′+εij, Cij is the serum concentration of PFAS for individual i at sampling round j; αi is the subject-specific intercept (random intercept); tij is the time; β is the average slope; Xi is a vector of fixed covariates for individual i; β′ stands for the fixed effect coefficients; and εij is the random error term. We modified the model by excluding the subject-specific slope (random slope) due to a failure to converge after inclusion, which may be due to the limited number of study subjects. The negative value of the average slope ( −β ) is the population average k, and average half-life is calculated as ln2/k .
In the linear mixed model, we included only age and sex as covariates. We based covariate selection on factors that could conceivably confound the PFAS half-life estimation. Working task, duration of employment, number of glasses of water per day, blood donation, and pregnancy before mitigation of PFAS exposure from drinking water can influence the initial serum levels but would not be expected to influence the PFAS half-life.
A sensitivity analysis was performed using the same linear mixed model but with Cij as the serum levels after subtracting general background levels (using the median levels obtained from the nonexposed reference population). If the serum PFAS levels after subtraction were lower than the half of the background levels, they were replaced with half of the background levels.

[2] = Urine/serum ratio in paired samples; assay type: in vivo, human; conditions: mean of four paired samplings per subject, 17 airport employees
Procedure: Urinary PFAS concentrations were specific-gravity adjusted. The ratio of urine and serum concentration for each PFAS (urine/serum ratio) at each sampling was calculated based on PFAS concentrations in paired serum and urine samples from 17 employees. Then the personal average urine/serum ratio was calculated using the mean value of repeated samplings for each employee.

[3] = design: method as in Zhang et al. 2015; conditions: ref Zhang et al. 2015, cited from earlier work
[4] = general Swedish population (Ronneby, 106 Swedes) with high exposure through drinking water, 2 y follow-up from 6 months after clean water; ref Li et al. 2018; cited from earlier work
[5] = PFAS levels in serum samples of airport employees (LC/MS/MS); conditions: all the serum samples, although elevated in the drinking water
Source text: All 26 employees at the airport were invited for a blood sampling between 11 and 14 September 2018 (i.e., within 11 to 14 d after the termination of contaminated drinking-water exposure). Information on age, home address, employment history, working tasks, and sick leave and vacation days in August and September were collected by questionnaire. In addition, data on the number of glasses of water consumed per day, local fish consumption, and history of blood donation and medication were collected. For female employees, questions about menstruation, pregnancy, and duration of breast-feeding were asked.
The PFAS analysis in serum from the first sampling was immediately performed and personal results were reported to the employees. […] These 17 employees submitted four rounds of blood and first morning urine samples in parallel, at 1-month intervals. In total, there were five rounds of serum sampling (started from September) and four rounds of urine sampling (from October). For modeling of elimination, all samples were reanalyzed in a single batch. We obtained 83 serum samples with a median count of 5 (range: 4–5) samples per employee, and 59 urine samples with median of 4 (range: 1–4) samples per employee. Only one employee provided a single urine sample. The study was approved by the Regional Ethical Review Board in Lund, Sweden. All employees provided written informed consent.
Venous whole blood samples were obtained and were centrifuged for 10 min at 1,500×g at room temperature to isolate the serum on site. The serum samples were collected in 6-mL BD Vacutainer® Plus plastic serum tubes without gel (BD). Urine samples were collected in 13-mL polypropylene screw cap tubes (Sarstedt). Serum and urine samples were frozen at −20°C after sampling and transported to Lund using cold chain logistics. Serum and urine samples were stored at −80°C and −20°C , respectively, before analysis.
The serum samples, QC samples, and chemical blanks were prepared in 96-well plates with 1.5-mL flat-bottom glass vials (Biotech solutions). Serum samples were thawed for 1–2 h and mixed on a vortex shaker for approximately 10 s two times. Once after all samples were thawed and a second time before pipetting the serum to the plate. Before pipetting, the tip was pre-wetted several times, drawing a volume into the tip and dispensing it back into the tube. Sample preparation procedures for serum samples consisted of 25μL serum mixed with 25μL water, 25μL methanol, 25μL isotopically labeled internal standards in 50% acetonitrile (see Table S1), and 100μL acetonitrile. Thereafter, samples were mixed vigorous by shaking for 30 min and centrifuged at 2,600×g for 10 min at room temperature. The supernatant ( 0.2mL ) was transferred to 96-well plates with 0.5-mL conical glass vials (MicroLiter Analytical Supplies) and again centrifuged at 3,000×g for 10 min before analysis. The QC samples and chemical blanks were prepared following the same procedure as the serum samples. The calibration standards were prepared in FBS the same way as the samples, except for the addition of diluted reference standards of all analyzed compounds in 25μL of the methanol solution.
Aliquots of 4μL of the sample were analyzed using LC/MS/MS. For the analysis, a C18 column ( 4μm , 2.1mm i.d.×50mm , Genesis Lightning) was used prior to the injector to filter the mobile phases. The analytical column was an Aquity BEH ( 1.7μm , 2.1mm i.d.×100mm Waters). The mobile phases (A and B) were A: 5 mM ammonium acetate in water:methanol (50:50); and B: methanol. The mobile phase was kept at 0% B for 2.5 min after injection. A gradient was then applied over 11 min to 90% B, where it was then kept for 1.5 min. The column was then conditioned at 0% B for 2 min.

For O=S(=O)(O)C(F)(F)C(F)(F)C(F)(F)C(F)(F)C(F)(F)C(F)(F)C(F)(F)C(F)(F)F [PFOS, perfluorooctane sulfonic acid], the “Average half-life longer than that of the PFCA with same number of carbon atoms” value ([1]; PFHpS vs PFHpA, PFOS vs PFOA) was about 1.2 y, the Average serum half-life ([1]; population average, linear mixed model with original serum levels, 17 airport employees after end of drinking-water exposure) was 2.9 y and the “Personal average urine/serum ratio, median (range)” value [2] was 0.00092. For the same compound, the Urine/serum ratio ([3]; nonpregnant women) was 0.013, the Urine/serum ratio ([3]; pregnant women) was 0.0004 and the Average half-life [4] was 3.4 y.
With O=C(O)C(F)(F)C(F)(F)C(F)(F)C(F)(F)F [PFPeA, perfluoropentanoic acid] the “Level in serum samples” value [5] was “below LOD”.
